Source: US10583154B2, “Multi-dose compositions containing an antimicrobial polyamide or octenidine preservative” (priority 2016, dated 2020)

Columns and labels:
Pseudomonas aeruginosa = experiment: Antimicrobial preservative efficacy test (dilution neutralization), preservative as WFI solution; format: cell-based
Description: Preservatives are commonly used in multi-dose formulations, including animal vaccines, to prevent bacterial or fungal growth in field conditions and are employed to minimize contamination of the formulations during repeated (non-sterile) punctures into the vial. Preservatives must pass antimicrobial effectiveness testing (AET), as described in the US pharmacopeia. As disclosed herein, Applicants performed the antimicrobial tests according to United States Pharmacopeia (USP), British Pharmacopeia (BP), and European Pharmocopeia (EP). Four test organisms were used: Candida albicans, Pseudomonas aeruginosa, Staphylococcus aureus, and A. brasiliensis. And while thimerosal and formol continue to play an important role in veterinary vaccines, European authorities encourage the development of vaccines that are free from those compounds.
(§1) For each concentration of polyamide polymer, dilution neutralization was carried out by inoculating 10 mL of test product with 100 μL of each test strain. Countings were performed at Do, 6 h (bacteria only), 24 h (bacteria only), D7, D14 and D28. For each counting, 1 mL of the sample was neutralized in 9 mL of neutralizing solution (10 minutes), for S. aureus, a second 1:10 dilution in the same solution. Then 1 mL of the mixture was transferred in Petri dishes and covered with 15 mL of agar medium (Trypcase Soy Agar for bacteria and Sabouraud Dextrosed Agar for yeasts and molds). The countings were achieved after 24-48 hours incubation at 32.5° C.±2.5° C. for bacteria, and 48-72 hours at 22.5° C.[…] for yeasts and molds. The test micro-organisms included Staphylococcus aureus, Pseudomonas aeruginosa, Candida albicans and Aspergillus brasiliensis. Finally, the neutralization solution contained: Tween 80 (10%), lecithin (2%), saponin (2%), sodium thiosulfate (0.5%) and buffered solution chloride. The saponin was from the bark of Quillaja saponaria.
For each concentration of octenidine, dilution neutralization was carried out as disclosed in Example 1.

[1] = tested on: S. aureus, P. aeruginosa, C. albicans, A. brasiliensis; experiment: Preservative efficacy in TS6 oil-in-water emulsion vaccine, overall verdict; format: cell-based; details: 100 μg/ml alone; oily vaccine environment; previous experiment
Description: as §1
For each concentration of preservative (or preservative combination), dilution neutralization and other testing was carried out as disclosed in Example 1. The “TS6” formulation is an oil-in-water emulsion, described in U.S. Pat. No. 7,371,395 B2 (to Merial, Inc.; see especially Example 1). […]

Solubility in buffer = format: physicochemical
Description: In some embodiments, buffered solutions containing relatively lower amounts of salts, particularly including phosphate salts, are added to the immunogenic composition, or other preserved multi-dose formulation, to improve the solubility of the octenidine. This is based on Applicants' unexpected discovery that octenidine is less soluble in routinely used phosphate buffered saline (PBS). […] As such, in some embodiments, multi-dose formulations including octenidine contain less phosphate than standard PBS. Accordingly, in some embodiments, the buffer may contain for 100 L about 5 g of NaH2PO4 and about 200 g of Sodium bicarbonate (instead of standard PBS, which contains about a 20:1 ratio of Na2HPO4 to KH2PO4).

[2] = cited from earlier work
wound healing = details: cited from earlier work

## CCCCCCCCN=c1ccn(CCCCCCCCCCn2ccc(=NCCCCCCCC)cc2)cc1.Cl.Cl [Octenidine Dihydrochloride, Octenidine dihydrochloride]
Pseudomonas aeruginosa; 0.001 mg/mL, 6 h
  log reduction: 3 log
  viable count: 1.0 × 10^3
Pseudomonas aeruginosa; 0.001 mg/mL, 24 h
  log reduction: 3 log
  viable count: 1.0 × 10^4
Pseudomonas aeruginosa; 0.001 mg/mL, 7 d
  log reduction: 0 log
  viable count: >3.3 × 10^6
Pseudomonas aeruginosa; 0.001 mg/mL, 14 d
  log reduction: 0 log
  viable count: >3.3 × 10^6
Pseudomonas aeruginosa; 0.001 mg/mL, 28 d
  log reduction: 0 log
  viable count: >3.3 × 10^6
Pseudomonas aeruginosa; 0.001 mg/mL, T0
  viable count: 7.5 × 10^4
Pseudomonas aeruginosa; 0.01 mg/mL, 6 h
  log reduction: >5.1 log
  viable count: <10
Pseudomonas aeruginosa; 0.01 mg/mL, 24 h
  log reduction: >5.1 log
  viable count: <10
Pseudomonas aeruginosa; 0.01 mg/mL, 7 d
  log reduction: 4.4 log
  viable count: <10
Pseudomonas aeruginosa; 0.01 mg/mL, 14 d
  log reduction: 4.4 log
  viable count: <10
Pseudomonas aeruginosa; 0.01 mg/mL, 28 d
  log reduction: 4.4 log
  viable count: <10
Pseudomonas aeruginosa; 0.01 mg/mL, T0
  viable count: <10
Pseudomonas aeruginosa; 0.1 mg/mL, 6 h
  log reduction: >5.1 log
  viable count: <10
Pseudomonas aeruginosa; 0.1 mg/mL, 24 h
  log reduction: >5.1 log
  viable count: <10
Pseudomonas aeruginosa; 0.1 mg/mL, 7 d
  log reduction: 4.4 log
  viable count: 50
Pseudomonas aeruginosa; 0.1 mg/mL, 14 d
  log reduction: >5.1 log
  viable count: <10
Pseudomonas aeruginosa; 0.1 mg/mL, 28 d
  log reduction: >5.1 log
  viable count: <10
Pseudomonas aeruginosa; 0.1 mg/mL, T0
  viable count: <10
Pseudomonas aeruginosa; 1 mg/mL, 6 h
  log reduction: >5.1 log
  viable count: <10
Pseudomonas aeruginosa; 1 mg/mL, 24 h
  log reduction: >5.1 log
  viable count: <10
Pseudomonas aeruginosa; 1 mg/mL, 7 d
  log reduction: >5.1 log
  viable count: <10
Pseudomonas aeruginosa; 1 mg/mL, 14 d
  log reduction: >5.1 log
  viable count: <10
Pseudomonas aeruginosa; 1 mg/mL, 28 d
  log reduction: >5.1 log
  viable count: <10
Pseudomonas aeruginosa; 1 mg/mL, T0
  viable count: <10
[1]
  preservative efficacy: did not exhibit satisfactory preservative efficacy
Solubility in buffer; routinely used phosphate buffered saline (PBS)
  solubility: less soluble
Solubility in buffer; sodium phosphate replaced with sodium bicarbonate
  solubility: provided the required solubility
[2]
  LD50 on rat: LD50 on rat = 10 mg/kg
Wound healing
  Cytotoxicity data: demonstrate any adverse effect to wound healing: Cytotoxicity data failed to
